US9227852B2, “Apparatus, systems, and methods for water treatment” (McWong Environmental Technology, priority 2008, dated 2016)
Read-outs that look alike come from different tables or passages of the source.

What was measured:
[1] = Comparison of treatment methods for removing MIB from water (Table 4, FIG. 6)
[2] = Comparison of treatment methods for removing geosmin from water (Table 4, FIG. 6)
MS2 coliphage = assay type: cell-based; details: for effect of peroxide addition on virus / MS2 coliphage disinfection: at the ozone and peroxide doses tested, media filtered or microfiltered water
poliovirus = assay type: cell-based
[3] = Bench-scale ozone / AOP treatment of tertiary filtered effluent: Fluoxetine; details: Ozone Only Mode, ozone dose of 5 mg/l, FIG. 32
[4] = Bench-scale ozone / AOP treatment of tertiary filtered effluent: Ibuprofen; details: Ozone Only Mode
[5] = Destruction of trace organic compounds in waste water: triclosan; design: dose or concentration left out as unconfirmed; details: FIG. 20
Experimental: (§1) While ozone and ozone/peroxide methods are know to reduce the levels of various organic compounds commonly found in waste water, the efficacy of the present apparatus, systems, and methods for removing nonylphenol (NP), bisphenol-A (BPA), and triclosan (TCS) from waste water was also tested.

[6] = Bench-scale ozone / AOP treatment of tertiary filtered effluent: Triclosan; details: Ozone Only Mode, ozone dose of 5 mg/l, FIG. 30
[7] = Destruction of trace organic compounds in waste water: nonylphenol; design: dose or concentration left out as unconfirmed; details: ozone dose of about, FIG. 20
Experimental: as §1

[8] = Bench-scale ozone / AOP treatment of tertiary filtered effluent: Gemifibrozil; details: Ozone Only Mode, ozone dose of less than or equal to 5 mg/l, FIG. 28
total coliform = assay type: cell-based, coliforms
E. Coli = assay: Bench-scale ozone / AOP disinfection of tertiary filtered effluent: E. Coli; assay type: cell-based; details: Ozone Only Mode, ozone dose of less than or equal to 5 mg/l
[9] = Destruction of trace organic compounds in waste water: bisphenol-A; design: dose or concentration left out as unconfirmed; details: FIG. 20
Experimental: as §1

[10] = Bench-scale ozone / AOP treatment of tertiary filtered effluent: Caffeine; details: Ozone Only Mode, ozone dose of 5 mg/l, FIG. 31
[11] = Bench-scale ozone / AOP treatment of tertiary filtered effluent: Sulfamethoxazole; details: Ozone Only Mode, ozone dose of 5 mg/l, FIG. 33
[12] = Bench-scale ozone / AOP treatment of tertiary filtered effluent: Trimethoprim; details: Ozone Only Mode, ozone dose of 5 mg/l, FIG. 34
[13] = Bench-scale ozone / AOP treatment of tertiary filtered effluent: Estradiol Equivalents (B-screen bioassay); details: Ozone Only Mode, ozone dose of less than or equal to 5 mg/l, FIG. 27

OO [Hydrogen peroxide]
Removal (%) MIB ([1]; feed rate 1 mg/L): 72% | Removal (%) Geosmin ([2]; feed rate 1 mg/L): 50% | effect of peroxide addition on virus / MS2 coliphage disinfection (MS2 coliphage; listed as Peroxide): did not impact disinfection efficacy | effect of peroxide addition on virus / MS2 coliphage disinfection (MS2 coliphage; listed as hydrogen peroxide): did not interfere | effect of peroxide addition on virus / MS2 coliphage disinfection (MS2 coliphage; listed as peroxide): did not significantly affect disinfection

O=[O+][O-] [Ozone]
Log Reduction of Poliovirus as a function of ozone dose (equation 1) (poliovirus): 0.3427×Ozone Dose−0.3621 | disinfection of poliovirus corresponding to the 6.5-log disinfection of MS2 coliphage (poliovirus): 5 log | maximum removal of Fluoxetine [3]: > 97% | removal of Ibuprofen ([4]; ozone dose of 5 mg/l, FIG. 29): ~77% | maximum removal of Ibuprofen ([4]; ozone dose of less than or equal to 10 mg/l): > 98% | Removal (%) MIB ([1]; feed rate 2.5 mg/L): 77% | reduction in MIB ([1]; ozone 3 mg/L, FIG. 6): ~40% | reduction in geosmin [2]: ~40% | Removal (%) Geosmin ([2]; feed rate 2.5 mg/L): 94% | reduction of the levels of TCS [5]: substantially reduce | maximum removal of Triclosan [6]: > 76% | reduction of the levels of NP [7]: substantially reduce | maximum removal of Gemifibrozil [8]: > 99% | levels of coliforms after treatment (total coliform): non-detectable | ozone dose at which non-detectable levels of total coliform were achieved (total coliform): 4.5 mg/L | total coliform after treatment (total coliform): less than 2.2 MPN/100 mL | log reduction of E. Coli (E. Coli): greater than 4 log | E. Coli after disinfection (below the detection limit) (E. Coli; untreated 12,000 organism/100 ml, FIG. 37): < 1 organism/100 ml | reduction of the levels of BPA [9]: substantially reduce | maximum removal of Caffeine [10]: > 96% | Log Reduction of MS2 as a function of ozone dose (equation 2) (MS2 coliphage): 0.4045×Ozone Dose+0.1823 | contact time sufficient to achieve a 6.5-log disinfection of MS2 coliphage (MS2 coliphage): about 10 seconds | disinfection of MS2 coliphage achieved (MS2 coliphage): 6.5 log | ozone dose required to achieve a 6.5-log disinfection of MS2 coliphage (MS2 coliphage): greater than 5 ppm | ozone required to achieve a 6.5-log disinfection of MS2 coliphage, relative to media-filtered water (MS2 coliphage): slightly lower | maximum removal of Sulfamethoxazole [11]: > 99.9% | maximum removal of Trimethoprim [12]: > 99% | maximum removal of Estradiol Equivalents [13]: > 97%
